The source of these data is patent US5830897A, “α- and β-amino acid hydroxyethylamino sulfonamides useful as retroviral protease inhibitors” (G. D. Searle & Co., priority 1995, dated 1998).

In data set [1] the target is T1, HIV protease (Human immunodeficiency virus type 1 group M subtype B, UniProt P04585).
T1 construct: HIV protease is diluted in the assay buffer to a final enzyme concentration of 12.3 nanomolar, based on a molecular weight of 10,780
The data set can be described thus: biochemical. As to the method:
The enzyme method is described below. […] The positive control is MVT-101 (Miller, M. et al, Science, 246, 1149 (1989)] The assay conditions are as follows:
Assay buffer: 20 mM sodium phosphate, pH 6.4
The above described substrate is dissolved in DMSO, then diluted 10 fold in assay buffer. Final substrate concentration in the assay is 80 μM.
The final concentration of DMSO is 14% and the final concentration of glycerol is 18%. The test compound is dissolved in DMSO and diluted in DMSO to 10× the test concentration; 10 μl of the enzyme preparation is added, the materials mixed and then the mixture is incubated at ambient temperature for 15 minutes. The enzyme reaction is initiated by the addition of 40 μl of substrate. The increase in fluorescence is monitored at 4 time points (0, 8, 16 and 24 minutes) at ambient temperature. Each assay is carried out in duplicate wells.

Data set [2] is described as follows: Intrinsic toxicity of test compound in CEM cells without virus (MTT). The class given is cell-based. The settings on record: human, Table 16, read-out: TD50 (the source's name). From the text:
Methods, 20, 309-321 (1988).

Setting [3] is: Table 15A, second part (Ex., Table, Entry).
Setting [4] is: Table 15A, @ 1 uM, read-out: % inhib.
Setting [5] is: Table 15A, @ 10 uM, read-out: % inhib.
Setting [6] is: Table 5B, @ 1 μM, read-out: % inhibition.

Molecules are shown by their SMILES. Where two headings read alike, the source gives them in different places.

As usually defined, the IC50 is the concentration that gives 50% inhibition. Higher therefore signals weaker potency.

For the compound `CC(C)CCN(C[C@@H](O)[C@H](Cc1ccccc1)NC(=O)OCc1ccccc1)S(=O)(=O)c1ccccc1` [Table 1A Entry 39], in data set [1] (setting [3]), inhibition was half-maximal at 16 nM (IC50). This lies in the double-digit nanomolar range.
Consider `CC(C)CCN(C[C@@H](O)[C@H](Cc1ccccc1)NC(=O)OCc1ccccc1)S(C)(=O)=O` [Table 1A Entry 41], for which the inhibition at 1 µM in data set [1] (setting [4]) was determined as 24%. Moreover, the inhibition at 10 µM in data set [1] (setting [5]) came to 74%.
Take `CC(C)CCN(C[C@@H](O)[C@H](Cc1ccccc1)NC(=O)OCc1ccccc1)S(=O)(=O)C(F)(F)F` [Table 1A Entry 50]: the inhibition at 1 µM in data set [1] (setting [4]) is 42%. Also, in data set [1] (setting [5]), the inhibition at 10 µM stood at 89%.
As for `CC(C)CN(C[C@@H](O)[C@H](Cc1ccccc1)NC(=O)OCc1ccccc1)S(C)(=O)=O` [Table 1A Entry 51], the inhibition at 1 µM in data set [1] (setting [4]) is 31%. Moreover, in data set [1] (setting [5]), the inhibition at 10 µM came out at 76%.
In the case of `CC(C)CCN(C[C@@H](O)[C@H](Cc1ccccc1)NC(=O)OCc1ccccc1)S(=O)(=O)CCl` [Table 1A Entry 52], in data set [1] (setting [4]), the inhibition at 1 µM is 39%. The inhibition at 10 µM in data set [1] (setting [5]) was determined as 81%.
`CC(C)CCN(C[C@@H](O)[C@H](Cc1ccccc1)NC(=O)OCc1ccccc1)S(=O)(=O)c1ccc(F)cc1` [Table 1a Entry 1] had an IC50 in data set [1] (setting [3]) of 11 nM.
In the case of `CC(C)CCN(C[C@@H](O)[C@H](Cc1ccccc1)NC(=O)OCc1ccccc1)S(=O)(=O)c1ccccc1[N+](=O)[O-]` [Table 1a Entry 3], in data set [1] (setting [4]), the inhibition at 1 µM turned out to be 38%. Also, the inhibition at 10 µM in data set [1] (setting [5]) is 79%.
`CC(C)CCN(C[C@@H](O)[C@H](Cc1ccccc1)NC(=O)OCc1ccccc1)S(=O)(=O)c1ccc2ccccc2c1` [Table 1a Entry 4]: the IC50 in data set [1] (setting [3]) is 16 nM.
With `CC(C)CCN(C[C@@H](O)[C@H](Cc1ccccc1)NC(=O)OCc1ccccc1)S(=O)(=O)Cc1ccccc1` [Table 1a Entry 6], the inhibition at 10 µM in data set [1] (setting [5]) came to 36%.
`CC(C)CN(C[C@@H](O)[C@H](Cc1ccccc1)NC(=O)OCc1ccccc1)S(=O)(=O)c1ccc(F)cc1` [Table 1a Entry 7] registered an IC50 in data set [1] (setting [3]) of 9.6 nM.
On to `CC(C)CCN(C[C@@H](O)[C@H](Cc1ccccc1)NC(=O)C(NC(=O)CN(C)C)C(C)(C)C)S(C)(=O)=O` (some centres unmarked) [Table 3 Entry 2], for which the inhibition at 0.1 µM in data set [1] (Table 15A, @ 0.1 uM) amounted to 38%. Besides, in data set [1] (setting [4]), the inhibition at 1 µM was 90%.
Consider `COc1ccc(S(=O)(=O)N(CC(C)C)CC(O)C(Cc2ccccc2)NC(=O)c2ccc3[nH]ccc3c2)cc1` (centres unmarked) [Table 5A Entry 5], for which the IC50 in data set [1] (Table 5B) was 26 nM.
Turning to `COc1ccc(S(=O)(=O)N(CC(C)C)CC(O)C(Cc2ccccc2)NC(=O)c2ccccc2S(C)(=O)=O)cc1` (centres unmarked) [Table 5A Entry 17], the inhibition at 10 µM in data set [1] (Table 5B, @ 10 μM, read-out: % inhibition) was 59%.
Turning to `COc1ccc(S(=O)(=O)N(CC(C)C)CC(O)C(Cc2ccccc2)NC(=O)c2ccccc2CS(C)(=O)=O)cc1` (centres unmarked) [Table 5A Entry 20], in data set [1] (setting [6]), the inhibition at 1 µM was 85%.
The same measure, in the same setting: the same measure for `COc1ccc(S(=O)(=O)N(CC(C)C)CC(O)C(Cc2ccccc2)NC(=O)c2ccc(CS(C)(=O)=O)cc2)cc1` (centres unmarked) [Table 5A Entry 22]: 63%.
As for `COc1ccc(S(=O)(=O)N(CC(C)C)CC(O)C(Cc2ccccc2)NC(=O)c2ccccc2OC)cc1` (centres unmarked) [Table 5A Entry 29], inhibition in data set [1] (Table 5B) was half-maximal at 190 nM (IC50).
On to `CC(C)CCN(C[C@@H](O)[C@H](Cc1ccccc1)NC(=O)C(N)C(C)(C)C)S(=O)(=O)c1ccccc1` (some centres unmarked) [Table 11 Entry 1], for which the midpoint of inhibition in data set [1] (setting [3]), the IC50, lay at 130 nM.
`CC(C)CCN(C[C@@H](O)[C@H](Cc1ccccc1)NC(=O)[C@@H](NC(=O)CBr)C(C)(C)C)S(=O)(=O)c1ccccc1` [Table 12 Entry 10]: the IC50 in data set [1] (setting [3]) was 3.3 nM.
`CC(C)CCN(C[C@@H](O)[C@H](Cc1ccccc1)NC(=O)[C@H](CC(N)=O)NC(=O)c1ccc2ccccc2n1)S(C)(=O)=O` [Table 15A Entry 4] came in with an IC50 in data set [1] (Table 15A, first part) of 27 nM.
Turning to `CC(C)CCN(C[C@@H](O)[C@H](Cc1ccccc1)NC(=O)[C@H](CC(N)=O)NC(=O)c1ccc2ccccc2n1)S(C)(=O)=O` [Table 16 Entry 4], the IC50 in data set [1] (Table 16, enzyme assay) is 27 nM.
Regarding `CC(C)CCN(C[C@@H](O)[C@H](Cc1ccccc1)NC(=O)[C@@H](NC(=O)CN(C)C)C(C)(C)C)S(C)(=O)=O` [Table 16 Entry 6], in data set [2], the CC50 was determined as 425 nM.
With `CNC(=O)C[C@H](NC(=O)c1ccc2ccccc2n1)C(=O)N[C@@H](Cc1ccccc1)[C@H](O)CN(CCC(C)C)S(=O)(=O)c1ccccc1` [Table 16 Entry 7], the CC50 in data set [2] worked out at 39 nM.
Same read-out and setting: for `CC(C)CCN(C[C@@H](O)[C@H](Cc1ccccc1)NC(=O)c1ccccc1)S(=O)(=O)c1ccccc1` [Table 16 Entry 8] the value was 24 nM; for `CCC(C)[C@H](NC(=O)CN(C)C)C(=O)N[C@@H](Cc1ccccc1)[C@H](O)CN(CCC(C)C)S(=O)(=O)c1ccccc1` (some centres unmarked) [Table 16 Entry 14], 55000 nM.
`COc1ccc(S(=O)(=O)N(CC(C)C)C[C@@H](O)[C@H](Cc2ccccc2)NC(=O)c2ccccc2)cc1` [Table 16 Entry 28] registered an IC50 in data set [1] (Table 16, enzyme assay) of 14 nM. This counts as double-digit nanomolar.
Regarding `COc1ccc(S(=O)(=O)N(CC(C)C)C[C@@H](O)[C@H](Cc2ccccc2)NC(=O)c2ccccc2Cl)cc1` [Table 16 Entry 30], the IC50 in data set [1] (Table 16, enzyme assay) amounted to 6 nM.
As for `CCc1ccccc1C(=O)N[C@@H](Cc1ccccc1)[C@H](O)CN(CC(C)C)S(=O)(=O)c1ccc(OC)cc1` [Table 16 Entry 31], half-maximal inhibition in data set [1] (Table 16, enzyme assay) (IC50) required 10 nM. Against the preceding compound, the IC50 is about 1.7-fold higher.
The compound `CC(C)CCN(C[C@@H](O)[C@H](Cc1ccccc1)NC(=O)OCc1ccccc1)S(=O)(=O)c1ccccc1` [drawing 314] yielded an IC50 in data set [1] (Table 15A, first part) of 16 nM. This counts as double-digit nanomolar.
Take `CC(C)CCN(C[C@@H](O)[C@H](Cc1ccccc1)NC(=O)OCc1ccccc1)S(=O)(=O)c1ccccc1` [drawing 326]: the IC50 in data set [1] (Table 16, enzyme assay) was 16 nM.
